# Test results: paper PMC8854749, “Celastrol Inhibits Canine Mammary Tumor Cells by Inducing Apoptosis via the Caspase Pathway” (Frontiers in Veterinary Science, 2022)
# Columns and labels:
# Format in all cases: cell-based, canine
# MDCK cells = test: Cell Counting Kit-8 (CCK-8) cell viability, non-tumor cell line; conditions: for IC50: Canis lupus familiaris, MDCK cells (non-tumor canine cell line), CCK-8
# Description: (§1) CMT-7364, CIPp, and MDCK cells were plated in a 96-well plate with 2,000 cells per well and maintained in 5% CO2 at 37°C for 24 h until the cells adhered to the bottom. Then the medium was removed, the new media containing different concentrations (0, 0.1, 0.4, 0.6, 0.8, 1.2, and 1.6 μM) of celastrol were added, and incubated for 12, 24, 36, and 48 h. Ten microliters of the cell counting kit-8 (CCK-8) were added to each well for 1 h incubation. At each time point, the OD value was read by a microplate reader at 450 nm wavelength, and the cell viability with each drug concentration at different time points was calculated: cell relative viability=[(OD 450celastrol-OD 450blank) / (OD 450control-OD 450blank)] × 100%.
# CIPp cells [1] = test: Cell cycle distribution, PI staining, flow cytometry; conditions: 24 h (0 μM: 12.0%)
# Description: (§2) To investigate whether celastrol inhibits the proliferation of canine mammary tumor cells by regulating the cell cycle, we treated canine mammary tumor cells with celastrol for 24 h, then stained cells with PI followed by flow cytometry to detect the percentage of different cell cycle phases. […] Furthermore, we detected the expression of mRNA and protein of cell cycle–related factors by qPCR and Western blotting.
# CMT-7364 cells [2] = test: as above; conditions: 24 h (0 μM: 5.6%)
# Description: as §2
# CIPp cells [3] = test: Western blot of apoptosis- and cell cycle-related proteins; conditions: different concentrations, 24 h, Western blot
# Description: (§3) The CMT-7364 and CIPp cells were treated with different concentrations of Caspase inhibitor Z-V-F and/or celastrol for 24 h, and the cells were lysed with RIPA lysis buffer on ice. The protein was extracted according to the manufacturer's instructions, and protein concentration was determined by the BCA protein concentration assay kit. The loading amount of 20 μg protein in each group was separated by 10% SDS-PAGE, the separated protein was transferred to polyvinylidene fluoride membrane. After blocking with 5% skimmed milk for 1 h, the membrane was washed two times with 0.5% PBS-Tween 20 (PBS-T), then the membrane with the primary antibody was incubated overnight in a shaker at 4°C. Primary antibodies include β-actin (1:2,000), p65 (1:1,000), NF-κB (1:1,000), Caspase-9 (1:1,000), Caspase-3 (1:1,000), Bax (1:2,000), Bcl-2 (1:1,000), Cyclin D1 (1:1,000), p21 (1:1,000), and p27 (1:1,000). After washing 3 times with PBS-T buffer for 10 min each time, the membrane was incubated with HRP-conjugated secondary antibody at 37°C for 30 min. Secondary antibodies include anti-mouse IgG antibody (1:5,000), anti-rabbit IgG antibody (1:2,000~1:4,000). The membrane was washed 3 times with PBS-T for 10 min each time. Finally, it was detected by an enhanced chemiluminescence detection system, and the results were quantified by ImageJ.
# CMT-7364 cells [4] = test: as above; conditions: different concentrations, 24 h, Western blot
# Description: as §3
# CIPp cells [5] = test: Colony formation assay; conditions: 0.3 μM or 0.9 μM for 24 h, then 10 days, vs control group
# Description: (§4) CMT-7364 and CIPp cells were seeded in a 6-well cell culture plate at a concentration of 1 × 10^4 cells/well until they became adherent, cultured for another 24 h with serum-containing medium with 0 μM celastrol (control group), 0.3 μM celastrol, and 0.9 μM celastrol, respectively. Cells were treated with 0.25% trypsin (Gibco, NY, United States) and resuspended into single cells, each group of cells was seeded in a 6-well cell culture plate at 400 cells/well concentration, and cultured for 10 consecutive days. […] The cells were stained with 0.1% crystal violet, and photographed with a digital camera, followed by calculating the number of colonies.
# CMT-7364 cells [6] = test: Colony formation assay; conditions: 0.3 μM or 0.9 μM for 24 h, then 10 days, vs control group
# Description: as §4
# CIPp cells [7] = test: Cell Counting Kit-8 (CCK-8) cell viability; conditions: for IC50: Canis lupus familiaris, CCK-8
# Description: as §1
# CIPp cells [8] = test: Annexin V-FITC/PI apoptosis flow cytometry; conditions: 0.3 and 0.9 μM, 24 h, vs control group
# Description: (§5) CMT-7364 and CIPp cells were seeded in a 6-well plate at a concentration of 1 × 10^5 cells/well, treated with different concentrations of celastrol (0, 0.3, and 0.9 μM) for 24 h. The cell culture medium was collected, the cells were washed once with PBS, digested with 0.25% trypsin, the cells were resuspended with the collected cell culture medium and kept after centrifugation. The cells were stained with Annexin V-FITC Apoptosis Detection Kit, and Guava easy Cyte5 (Merck millipore, United States) was used to detect the stained cells, and the data were analyzed by using Flow Jo software (version 10.0.7, United States).
# CMT-7364 cells [9] = test: Annexin V-FITC/PI apoptosis flow cytometry; conditions: 0.3 and 0.9 μM, 24 h, vs control group
# Description: as §5
smiles,measurement,setting,value
"CC1=C(O)C(=O)C=C2C1=CC=C1[C@@]2(C)CC[C@@]2(C)[C@@H]3C[C@](C)(C(=O)O)CC[C@]3(C)CC[C@]12C [celastrol, Celastrol]",IC50,MDCK cells; 24 h,1810 nM
same,IC50,MDCK cells; 48 h,1860 nM
same,proliferation,"MDCK cells; MDCK cells, concentration <1.2 μM",did not significantly inhibit
same,percentage of cell cycle G2/M phase,CIPp cells [1]; 0.3 μM,21.9%
same,percentage of cell cycle G2/M phase,CIPp cells [1]; 0.9 μM,34.4%
same,percentage of cell cycle G2/M phase,CMT-7364 cells [2]; 0.3 μM,20.3%
same,percentage of cell cycle G2/M phase,CMT-7364 cells [2]; 0.9 μM,32.7%
same,protein expression level of Bax,CIPp cells [3],significantly up-regulated
same,protein expression level of Bcl-2,CIPp cells [3],significantly down-regulated
same,protein expression level of Cleaved-Caspase-3,CIPp cells [3],significantly up-regulated
same,protein expression level of Cleaved-Caspase-9,CIPp cells [3],significantly up-regulated
same,protein expression level of Cyclin D1,CIPp cells [3],down-regulated
same,protein expression level of NF-kB,CIPp cells [3],significantly down-regulated
same,protein expression level of p21,CIPp cells [3],up-regulated
same,protein expression level of p27,CIPp cells [3],up-regulated
same,protein expression level of phosphorylated p65,CIPp cells [3],significantly down-regulated
same,protein expression level of Bax,CMT-7364 cells [4],significantly up-regulated
same,protein expression level of Bcl-2,CMT-7364 cells [4],significantly down-regulated
same,protein expression level of Cleaved-Caspase-3,CMT-7364 cells [4],significantly up-regulated
same,protein expression level of Cleaved-Caspase-9,CMT-7364 cells [4],significantly up-regulated
same,protein expression level of Cyclin D1,CMT-7364 cells [4],down-regulated
same,protein expression level of NF-kB,CMT-7364 cells [4],significantly down-regulated
same,protein expression level of p21,CMT-7364 cells [4],up-regulated
same,protein expression level of p27,CMT-7364 cells [4],up-regulated
same,protein expression level of phosphorylated p65,CMT-7364 cells [4],significantly down-regulated
same,formation of colonies,CIPp cells [5],significantly inhibited the formation of colonies
same,formation of colonies,CMT-7364 cells [6],significantly inhibited the formation of colonies
same,cell viability,"CIPp cells [7]; 0.1-1.6 μM, 12-48 h",decreased the viability of the cells in a dose- and time-dependent manner
same,IC50,CIPp cells [7]; 24 h,1160 nM
same,IC50,CIPp cells [7]; 48 h,968 nM
same,proliferation,CIPp cells [7]; concentration <1.2 μM,significantly inhibited
same,percentages of early and late apoptotic cells,CIPp cells [8],increased in a dose-dependent manner
same,percentages of early and late apoptotic cells,CMT-7364 cells [9],increased in a dose-dependent manner
